Tested on: Bacillus subtilis (ATCC #19659) spores
Test: B. subtilis spore viability assay, 15 minutes treatment, with or without serum
Type: cell-based
Conditions: spore suspension about 1×10^6 cfu/mL, 48 hours incubation at 37° C. on TSA, >500 = too many colonies to count
Method: To prepare stock cultures of pathogenic spores, 10 mL nutrient broth was inoculated using a stock culture of Bacillus subtilis (ATCC #19659) and incubated on an orbital shaker for 24±2 hours at approximately 150 rpm at 36±1° C. This culture was used to inoculate Tryptic Soy Agar (TSA) plates. Each plate was inoculated with 500 μL of broth culture and the inoculum spread with a sterile L spreader. In addition, the purity of this culture was verified by streaking on TSA plates and incubating plates at 36±1° C. for 24±2 hours. Each plate was wrapped with parafilm. inverted and incubated for 12-14 days at 36±1° C. Following incubation, spores were harvested by adding 10 mL cold sterile water to each plate, the growth removed from the plates using a spreader, and the resulting suspensions were transferred into 15 mL sterile conical tubes. The suspensions were centrifuged at 5,000 rpm (4,500×g) for approximately 10 minutes at room temperature. After removal of the supernatant, the spore pellet was washed by re-suspending pellet with 10 mL cold sterile water and centrifuged at 5,000 rpm (4,500×g) for approximately 10 minutes. This washing step was repeated two more times. The spore pellet was re-suspended with 10 mL sterile water and the spore suspension was stored at 2-5° C. until needed. The spore suspension was stained using stain and the spores examined under the microscope to assess quality of the spores. A minimum of five fields were examined and the ratio of the spores to vegetative cells (or sporangia) was determined. Percentage of spores versus vegetative cells were about 95% spores. Spore titer was determined by preparing serial dilutions, plating the dilutions on TSA plates, incubating plates for 24±2 hours at 36±1° C., and counting the number of colonies formed to determine the titer. The test culture was standardized by using phosphate buffer to achieve a final test culture microbe population of 1.0×10^6 cfu/mL.
Assay samples were set up with or without serum, such as, e.g., Tryptic Soy Broth (TSB) or Bovine Serum (BS). The purpose of the serum was to better simulate the organic load of blood and other tissue which tends to deactivate an antimicrobial agent. In general, assays were conducted by first incubating a pathogen spore sample with a composition disclosed herein for a specified treatment time period, optionally with serum, and then culturing the sample on growth medium to assess spore viability.
In one series of experiments, assays where the samples were treated with serum were set up to contain 100 μL of pathogen spore suspension (containing about 1×10^6 cfu/mL), 50 μL of serum, and 850 μL of a composition described in Example 1. […] The inoculated plates were then incubated at 37° C. for 48 hours and the number of bacterial colonies, if any, counted. […]

Molecule | Count (number of bacterial colonies), 5% Serum | Count (number of bacterial colonies), No Serum
O=CCCCC=O [0.5% Glutaraldehyde, Glutaraldehyde] | >500 | >500
hypochlorous acid [97 ppm HOCl] | >500 | 0

Source: US12048307B2, “Compositions, methods and uses for cleaning, disinfecting and/or sterilizing” (Collidion, Inc., priority 2017, dated 2024)
